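Dose response: 5 concentrations. Exposure: 48 h. Format: 96-well plates. Endpoint: linear interpolation; highest concentration if not reached. Definition used: TGI = concentration required for complete inhibition of growth.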
What was measured:
Test in all cases: inhibition of tumour cell growth, NCI panel, 48 h
SW-620 colon = tested on: SW-620 colon
786-0 renal = tested on: 786-0 renal
RPMI-8226 leukemia = tested on: RPMI-8226 leukemia
UACC-62 melanoma = tested on: UACC-62 melanoma
LOX IMVI melanoma = tested on: LOX IMVI melanoma
SF-539 CNS = tested on: SF-539 CNS
OVCAR-3 ovarian = tested on: OVCAR-3 ovarian
HOP-62 NSCLC = tested on: HOP-62 NSCLC
UACC-257 melanoma = tested on: UACC-257 melanoma
SN12C renal = tested on: SN12C renal
SK-OV-3 ovarian = tested on: SK-OV-3 ovarian
MDA-N = tested on: MDA-N
MALME-3M melanoma = tested on: MALME-3M melanoma

Q: What does the source list for `CS(=O)(=O)OCCCCOS(=O)(=O)CF`?
A: TGI (SW-620 colon): > 100 µM; TGI (786-0 renal): > 100 µM; TGI (RPMI-8226 leukemia): > 100 µM; TGI (UACC-62 melanoma): > 100 µM; TGI (LOX IMVI melanoma): > 100 µM; TGI (SF-539 CNS): > 100 µM; TGI (OVCAR-3 ovarian): > 100 µM; TGI (HOP-62 NSCLC): > 100 µM; TGI (UACC-257 melanoma): > 100 µM; TGI (SN12C renal): > 100 µM; TGI (SK-OV-3 ovarian): > 100 µM; TGI (MDA-N): > 100 µM; TGI (MALME-3M melanoma): > 46.4 µM

Q: How did the TGI (SW-620 colon) turn out when `CO[C@]1(c2ccc([N+](=O)[O-])cc2)Oc2ccccc2C(=O)[C@@]1(Nc1ccc(C=O)cc1)OC` was run?
A: Its TGI is greater than 10 µM.

Q: And the TGI (786-0 renal)?
A: The TGI was greater than 10 µM.

Q: And the TGI (RPMI-8226 leukemia)?
A: Its TGI is greater than 10 µM.

Q: What about the TGI (UACC-62 melanoma) of the same molecule?
A: Its TGI is greater than 10 µM.

Q: And the TGI (LOX IMVI melanoma)?
A: The TGI was greater than 10 µM.

Q: What about the TGI (SF-539 CNS) of the same molecule?
A: The TGI was greater than 10 µM.

Q: And the TGI (OVCAR-3 ovarian)?
A: The TGI was greater than 10 µM.

Q: And the TGI (HOP-62 NSCLC)?
A: Its TGI is greater than 10 µM.

Q: And the TGI (UACC-257 melanoma)?
A: Its TGI is greater than 10 µM.

Q: What about the TGI (SN12C renal) of the same molecule?
A: The TGI was greater than 10 µM.

Q: What about the TGI (SK-OV-3 ovarian) of the same molecule?
A: The TGI was greater than 10 µM.

Q: And the TGI (MDA-N)?
A: The TGI was greater than 10 µM.

Q: And the TGI (MALME-3M melanoma)?
A: The TGI was greater than 10 µM.

Q: With `C=Cc1nc2c(Cl)ncnc2n1Cc1ccccc1` as the molecule, how does the TGI (SW-620 colon) read?
A: Its TGI is 23.2 µM.

Q: And the TGI (786-0 renal)?
A: Its TGI is 4.49 µM.

Q: What about the TGI (RPMI-8226 leukemia) of the same molecule?
A: Its TGI is 18.3 µM.

Q: And the TGI (UACC-62 melanoma)?
A: The TGI was 19.8 µM.

Q: What about the TGI (LOX IMVI melanoma) of the same molecule?
A: The TGI was 8.44 µM.

Q: What about the TGI (SF-539 CNS) of the same molecule?
A: The TGI was 8.77 µM.

Q: And the TGI (OVCAR-3 ovarian)?
A: Its TGI is 7.95 µM.

Q: What about the TGI (HOP-62 NSCLC) of the same molecule?
A: The TGI was 20.1 µM.

Q: And the TGI (UACC-257 melanoma)?
A: Its TGI is 8.6 µM.

Q: What about the TGI (SN12C renal) of the same molecule?
A: Its TGI is 17.5 µM.

Q: What about the TGI (SK-OV-3 ovarian) of the same molecule?
A: The TGI was 31 µM.

Q: What about the TGI (MDA-N) of the same molecule?
A: The TGI was 13.6 µM.

Q: What about the TGI (MALME-3M melanoma) of the same molecule?
A: Its TGI is 15.1 µM.

Q: What does the source list for `NC(N)=Nc1ccc(-c2ccc(N=C(N)N)cc2)cc1`?
A: TGI (SW-620 colon): > 100 µM; TGI (786-0 renal): > 100 µM; TGI (RPMI-8226 leukemia): 66.3 µM; TGI (UACC-62 melanoma): > 100 µM; TGI (LOX IMVI melanoma): > 100 µM; TGI (SF-539 CNS): 74.7 µM; TGI (OVCAR-3 ovarian): > 100 µM; TGI (HOP-62 NSCLC): > 100 µM; TGI (UACC-257 melanoma): > 100 µM; TGI (SN12C renal): > 100 µM; TGI (SK-OV-3 ovarian): > 100 µM; TGI (MDA-N): > 100 µM; TGI (MALME-3M melanoma): 62.6 µM

Q: With `C/C=C/C(C#N)(/C=C/c1ccccc1)OP1(=O)OC(c2ccccc2)C(C)N1C` (centres undefined) as the molecule, how does the TGI (SW-620 colon) read?
A: Its TGI is 39.2 µM.

Q: And the TGI (786-0 renal)?
A: The TGI was 31.7 µM.

Q: What about the TGI (RPMI-8226 leukemia) of the same molecule?
A: Its TGI is 40 µM.

Q: And the TGI (UACC-62 melanoma)?
A: Its TGI is 34.5 µM.

Q: What about the TGI (LOX IMVI melanoma) of the same molecule?
A: Its TGI is 35 µM.

Q: And the TGI (SF-539 CNS)?
A: Its TGI is 35.1 µM.

Q: What about the TGI (OVCAR-3 ovarian) of the same molecule?
A: The TGI was 35.5 µM.

Q: What about the TGI (HOP-62 NSCLC) of the same molecule?
A: Its TGI is 36.1 µM.

Q: What about the TGI (UACC-257 melanoma) of the same molecule?
A: The TGI was 35.1 µM.

Q: What about the TGI (SN12C renal) of the same molecule?
A: Its TGI is 35.5 µM.

Q: What about the TGI (SK-OV-3 ovarian) of the same molecule?
A: The TGI was 55.3 µM.

Q: And the TGI (MDA-N)?
A: Its TGI is 39 µM.

Q: What about the TGI (MALME-3M melanoma) of the same molecule?
A: Its TGI is 38.8 µM.

Q: Which results are given for `NC(=O)C(=CNC(N)=S)C(N)=O`?
A: TGI (SW-620 colon): > 100 µM; TGI (786-0 renal): > 100 µM; TGI (RPMI-8226 leukemia): > 100 µM; TGI (UACC-62 melanoma): > 100 µM; TGI (LOX IMVI melanoma): > 100 µM; TGI (SF-539 CNS): > 100 µM; TGI (OVCAR-3 ovarian): > 100 µM; TGI (HOP-62 NSCLC): > 100 µM; TGI (UACC-257 melanoma): > 100 µM; TGI (SN12C renal): > 100 µM; TGI (SK-OV-3 ovarian): > 100 µM; TGI (MDA-N): > 100 µM; TGI (MALME-3M melanoma): > 100 µM

Q: Which results are given for `CN1CCc2cc3c(c4c2C1C(O)c1ccccc1-4)OCO3` (centres undefined)?
A: TGI (SW-620 colon): > 100 µM; TGI (786-0 renal): 62.2 µM; TGI (RPMI-8226 leukemia): 32.6 µM; TGI (UACC-62 melanoma): 25.9 µM; TGI (LOX IMVI melanoma): 25.1 µM; TGI (SF-539 CNS): > 100 µM; TGI (OVCAR-3 ovarian): 44.1 µM; TGI (HOP-62 NSCLC): 18.6 µM; TGI (UACC-257 melanoma): 26.3 µM; TGI (SN12C renal): 11.1 µM; TGI (SK-OV-3 ovarian): > 100 µM; TGI (MDA-N): 16.1 µM; TGI (MALME-3M melanoma): 23.2 µM

Q: How did the TGI (SW-620 colon) turn out when `O=C(Nc1ccccc1)OCCN=C1c2ccccc2C(Br)C(Br)c2ccccc21` (centres undefined) was run?
A: The TGI was 16.3 µM.

Q: What about the TGI (786-0 renal) of the same molecule?
A: Its TGI is 8.18 µM.

Q: What about the TGI (RPMI-8226 leukemia) of the same molecule?
A: The TGI was 19.9 µM.

Q: And the TGI (UACC-62 melanoma)?
A: Its TGI is 17.6 µM.

Q: And the TGI (LOX IMVI melanoma)?
A: The TGI was 13.4 µM.

Q: What about the TGI (SF-539 CNS) of the same molecule?
A: Its TGI is 7.2 µM.

Q: And the TGI (OVCAR-3 ovarian)?
A: Its TGI is 15.8 µM.

Q: And the TGI (HOP-62 NSCLC)?
A: The TGI was 19.9 µM.

Q: What about the TGI (UACC-257 melanoma) of the same molecule?
A: Its TGI is 15.6 µM.

Q: What about the TGI (SN12C renal) of the same molecule?
A: The TGI was 17.5 µM.

Q: And the TGI (SK-OV-3 ovarian)?
A: The TGI was 22.5 µM.

Q: What about the TGI (MDA-N) of the same molecule?
A: The TGI was 17.1 µM.

Q: What about the TGI (MALME-3M melanoma) of the same molecule?
A: The TGI was 16.3 µM.

Source: PubChem BioAssay (NCI)
